Here are results for 29 compounds from US20060235222A1, “Indole-derivative modulators of steroid hormone nuclear receptors” (ELI LILLY AND COMPANY, priority 2003, published 2006).

For orientation: Ki means a measure of affinity in units of concentration, obtained from inhibition or displacement.

Assay [1] addresses T1, human GR (glucocorticoid receptor) (Homo sapiens, UniProt P04150).
T1 construct: expressed in transfected cells; host or cells: 293 cells
T1 sequence (P04150 1-777): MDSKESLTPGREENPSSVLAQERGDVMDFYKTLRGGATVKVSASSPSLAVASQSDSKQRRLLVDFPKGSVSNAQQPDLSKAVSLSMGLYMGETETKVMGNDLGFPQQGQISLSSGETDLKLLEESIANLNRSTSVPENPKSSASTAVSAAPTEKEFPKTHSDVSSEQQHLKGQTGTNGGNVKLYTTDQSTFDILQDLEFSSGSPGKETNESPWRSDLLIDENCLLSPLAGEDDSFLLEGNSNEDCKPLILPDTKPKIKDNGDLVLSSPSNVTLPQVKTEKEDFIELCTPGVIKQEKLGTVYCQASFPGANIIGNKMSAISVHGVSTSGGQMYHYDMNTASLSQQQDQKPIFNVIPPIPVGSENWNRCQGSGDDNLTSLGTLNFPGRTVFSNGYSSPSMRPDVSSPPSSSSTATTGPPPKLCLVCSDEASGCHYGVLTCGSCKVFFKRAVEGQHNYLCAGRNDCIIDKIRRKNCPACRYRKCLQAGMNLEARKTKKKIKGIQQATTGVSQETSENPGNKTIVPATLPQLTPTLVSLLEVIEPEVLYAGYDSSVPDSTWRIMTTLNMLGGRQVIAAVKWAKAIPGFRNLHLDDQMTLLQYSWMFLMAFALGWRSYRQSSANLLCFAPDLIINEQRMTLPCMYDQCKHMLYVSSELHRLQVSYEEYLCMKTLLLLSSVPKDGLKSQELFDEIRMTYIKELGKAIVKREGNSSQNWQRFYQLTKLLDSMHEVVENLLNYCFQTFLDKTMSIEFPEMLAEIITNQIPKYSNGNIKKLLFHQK
In words: Alternative Binding Assay Protocol (Method 2), 293-GR lysate, 3H-dexamethasone competition. The note with it: 0.3 nM 3H-dexamethasone. The procedure: Alternative Binding Assay Protocol for MR, GR, AR, and PR (Method 2):
Cell lysates from 293 cells overexpressing human GR (glucocorticoid receptor), AR (androgen receptor), MR (mineralocorticoid receptor) or PR (progesterone-receptor) are used for competition binding assays to determine Ki values for test compounds. […] Competing compounds are added at various concentraions in half-log increments. Non-specific binding is determined in the presence of 500 nM dexamethasone for GR binding, 500 nM aldosterone for MR binding, or 500 nM methyltrienolone for AR and PR binding. The binding reaction (140 μl) is incubated for overnight at 4° C., then 70 μl of cold charcoal-dextran buffer (containing per 50 ml of assay buffer, 0.75 g of charcoal and 0.25 g of dextran) is added to each reaction. Plates are mixed 8 minutes on an orbital shaker at 4° C. Plates are then centrifuged at 3,000 rpm at 4° C. for 10 minutes. An aliquot of 120 μl of the mix is transferred to another 96-well plate and 175 μl of Wallac Optiphase “Hisafe 3” scintillation fluid is added to each well. Plates are sealed and shaken vigorously on an orbital shaker. After an incubation of 2 hrs, plates are read in a Wallac Microbeta counter. […] The Kd for ^3H-dexamethasone for GR binding, ^3H-methyltrienolone for AR binding, ^3H-aldosterone for MR binding, or ^3H-methyltrienolone for PR binding, is determined by saturation binding. The IC50 values for compounds are converted to Ki using Cheng-Prusoff equation and the Kd determined by saturation binding assay.

The target of another assay is T2, human MR (Homo sapiens, UniProt P08235).
T2 construct: The full length human MR gene is cloned from a human kidney or human brain cDNA library; inferred from own knowledge of the pAcHLT vector (N); made in house; host or cells: Sf9 insect cells (baculovirus)
T2 sequence (P08235 1-984): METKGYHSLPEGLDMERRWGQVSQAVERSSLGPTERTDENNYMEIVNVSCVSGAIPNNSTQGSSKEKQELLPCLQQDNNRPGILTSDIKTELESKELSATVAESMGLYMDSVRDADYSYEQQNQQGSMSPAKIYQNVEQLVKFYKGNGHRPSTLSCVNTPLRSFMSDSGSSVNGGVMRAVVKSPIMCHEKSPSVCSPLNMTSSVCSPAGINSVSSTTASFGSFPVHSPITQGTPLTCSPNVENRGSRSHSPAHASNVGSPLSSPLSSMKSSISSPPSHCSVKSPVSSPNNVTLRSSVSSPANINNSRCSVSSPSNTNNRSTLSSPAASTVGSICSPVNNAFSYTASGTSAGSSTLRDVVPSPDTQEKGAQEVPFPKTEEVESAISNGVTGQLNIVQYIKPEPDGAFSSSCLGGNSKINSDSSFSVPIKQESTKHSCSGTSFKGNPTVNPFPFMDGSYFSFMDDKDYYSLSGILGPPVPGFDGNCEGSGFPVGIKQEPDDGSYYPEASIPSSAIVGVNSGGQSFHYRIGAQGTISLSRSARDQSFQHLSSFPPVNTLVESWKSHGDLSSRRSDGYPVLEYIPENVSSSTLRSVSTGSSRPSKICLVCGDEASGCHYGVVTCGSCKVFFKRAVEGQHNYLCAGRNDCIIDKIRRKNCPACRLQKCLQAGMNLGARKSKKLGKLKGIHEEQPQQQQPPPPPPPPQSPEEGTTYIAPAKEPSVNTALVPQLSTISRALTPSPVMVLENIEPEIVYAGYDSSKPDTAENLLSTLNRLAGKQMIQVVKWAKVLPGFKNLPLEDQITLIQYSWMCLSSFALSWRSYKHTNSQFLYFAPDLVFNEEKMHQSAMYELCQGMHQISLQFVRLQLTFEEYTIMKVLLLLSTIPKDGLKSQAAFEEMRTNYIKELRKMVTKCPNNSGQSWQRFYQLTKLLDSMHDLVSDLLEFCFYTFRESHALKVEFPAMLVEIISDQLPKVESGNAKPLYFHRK
Put plainly: Mineralocorticoid Receptor Binding Assay (Method 1), [3H]-aldosterone competition. The note with it: 0.5 nM [3H]-aldosterone, human MR expressed in Sf9 cells. In outline:
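Full-length human MR expressed in Sf9 cells via baculovirus; lysate supernatant (about 20-25 μg protein) incubated with 0.5 nM [3H]-aldosterone and test compound for about 16 h at 4° C. Buffer was Tris/molybdate/phosphate/pyrophosphate with 10% glycerol, pH 7.5; filter-bound complex counted by scintillation.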

The next assay concerns the target T3, glucocorticoid receptor (Homo sapiens, UniProt P04150).
T3 construct: containing 50-200 ug of A549 cell extract and 1.86 nM; host or cells: A549 human lung epithelial cells
T3 sequence (P04150 1-777): T1 sequence (P04150 1-777)
In words: Glucocorticoid Receptor Binding Assay (Method 1), [3H]-dexamethasone competition, A549 cell extract. The note with it: 1.86 nM [3H]-dexamethasone, read-out: GR Ki (nM) Method 1. The essentials:
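Receptor source: sonicated extract of human A549 lung epithelial cells in glycerol/Tris-HCl pH 7.2 buffer with sodium molybdate. [3H]-dexamethasone competition run 16 h at 4 °C; unbound radioligand stripped with dextran-coated charcoal (8 min, RT) and receptor-bound radioactivity quantified by scintillation counting.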

For `C[C@@](c1ccccc1F)(c1c[nH]c2c(NS(C)(=O)=O)cccc12)C1CC1` [Example 180], the Ki (in assay [1]; on human MR) was below 500 nM in each case.
On to `CCC(CC)(c1ccc2sc(C)nc2c1)c1c[nH]c2c(NS(C)(=O)=O)cccc12` [Example 190], for which the Ki (in assay [1]; at human MR) was below 500 nM in each case.
As to `CCCC(c1ccc(F)cc1)(c1c[nH]c2c(NS(C)(=O)=O)cccc12)C1CC1` (centres unmarked) [Example 179], the Ki (in assay [1]; at human MR) was below 500 nM throughout.
In assay [1], `CCCC(CCC)(c1ccc(OC)cc1)c1c[nH]c2c(NS(C)(=O)=O)cccc12` [Example 176] yielded a Ki below 500 nM.
For `CC1(c2c[nH]c3c(NS(C)(=O)=O)cccc23)CCCCc2ccccc21` (centres unmarked) [Example 189], the Ki (in assay [1]; at human MR) was below 500 nM throughout.
Take `Cc1ccc(C(C)(c2c[nH]c3c(NS(C)(=O)=O)cccc23)C2CC2)cc1` (centres unmarked) [Example 169]: the Ki (in assay [1]; at human MR) was below 500 nM each time.
As to `CCc1ccc(C(CC)(CC)c2c[nH]c3c(NS(C)(=O)=O)cccc23)cc1` [Example 171], in assay [1], the Ki was below 500 nM.
`CCC(c1ccc(F)cc1)(c1c[nH]c2c(NS(C)(=O)=O)cccc12)C1CC1` (centres unmarked) [Example 165]: the Ki (in assay [1]; at human MR) was below 500 nM in each case.
Take `C[C@](c1ccc(Cl)cc1)(c1c[nH]c2c(NS(C)(=O)=O)cccc12)C1CC1` [Example 164]: the Ki (in assay [1]; on human MR) was below 500 nM each time.
`C[C@](c1ccc(F)cc1)(c1c[nH]c2c(NS(C)(=O)=O)cccc12)C1CC1` [Example 173]: the Ki (in assay [1]; on human MR) was below 500 nM throughout.
Take `COc1ccc(C(C)(c2c[nH]c3c(NS(C)(=O)=O)cccc23)C2CC2)cc1` (centres unmarked) [Example 170]: the inhibitory constant (Ki) (in assay [1]; at human MR) was below 500 nM each time.
Regarding `CCC(CC)(c1ccc2nc(C)oc2c1)c1c[nH]c2c(NS(C)(=O)=O)cccc12` [Example 193], the Ki (in assay [1]; on human MR) was below 500 nM throughout.
As to `CCC(CC)(c1ccc2c(ccn2C(C)=O)c1)c1c[nH]c2c(NS(C)(=O)=O)cccc12` [Example 195], the Ki is below 1000 nM in assay [1] and below 500 nM at human MR.
Taken in the same sequence, the figures for `CCC(CC)(c1ccc2oc(C)cc2c1)c1c[nH]c2c(NS(C)(=O)=O)cccc12` [Example 181] were below 500 nM and below 500 nM.
Taken in the same sequence, the figures for `C[C@](c1ccccc1F)(c1c[nH]c2c(NS(C)(=O)=O)cccc12)C1CC1` [Example 172] were below 500 nM and below 500 nM.
Taken in the same sequence, the figures for `C[C@@](c1ccc(F)cc1)(c1c[nH]c2c(NS(C)(=O)=O)cccc12)C1CC1` [Example 186] were below 500 nM and below 500 nM.
In the case of `CCCCC(c1ccc(F)cc1)(c1c[nH]c2c(NS(C)(=O)=O)cccc12)C1CC1` (centres unmarked) [Example 185], the Ki (in assay [1]; on human MR) was below 500 nM in each case.
Take `C[C@@](c1ccc(Cl)cc1)(c1c[nH]c2c(NS(C)(=O)=O)cccc12)C1CC1` [Example 174]: the inhibition constant (Ki) (in assay [1]; at human MR) was below 500 nM each time.
For `CC(c1ccc2c(c1)OCO2)(c1c[nH]c2c(NS(C)(=O)=O)cccc12)C1CC1` (centres unmarked) [Example 175], the Ki (in assay [1]; at human MR) was below 500 nM in each case.
`CC(c1ccc(Cl)cc1)(c1c[nH]c2c(NS(C)(=O)=O)cccc12)C1CC1` (centres unmarked) [Example 167]: the Ki (in assay [1]; at human MR) was below 500 nM in each case.
For `CCC(CC)(c1ccc2nc(NC(C)=O)sc2c1)c1c[nH]c2c(NS(C)(=O)=O)cccc12` [Example 199], the figures for the Ki (in assay [1]; on human MR) were below 500 nM and below 1000 nM, respectively.
For `CCC(CC)(c1ccc(C(C)C)cc1)c1c[nH]c2c(NS(C)(=O)=O)cccc12` [Example 182], the Ki in assay [1] was below 10000 nM; at human MR, below 500 nM.
For `CC(C)(c1ccc2ncccc2c1)c1c[nH]c2c(NS(C)(=O)=O)cccc12` [Example 47, N-[3-(1-Methyl-1-quinolin-6-yl-ethyl)-1H-indol-7-yl]-methanesulfonamide], the Ki at glucocorticoid receptor and on human MR was below 500 nM in each case.
As to `CCCC(C)(c1cccc(OC)c1)c1c[nH]c2c(NS(C)(=O)=O)cccc12` (centres unmarked) [Example 46, N-{3-[1-(3-Methoxy-phenyl)-1-methyl-butyl]-1H-indol-7-yl}-methanesulfonamide], the Ki at glucocorticoid receptor and at human MR was below 500 nM in each case.
Take `CCc1cccc2c(C(C)(c3ccc(O)cc3)c3ccc(F)cc3)c[nH]c12` (centres unmarked) [Example 27, 4-[1-(7-Ethyl-1H-indole-3-yl)-1-(4-fluoro-phenyl)-ethyl]-phenol]: the Ki at glucocorticoid receptor is below 1000 nM; at human MR it was below 500 nM.
Taken in the same sequence, the figures for `CCC(CC)(c1ccc(SC)cc1)c1c[nH]c2c(NS(C)(=O)=O)cccc12` [Example 8, N-{3-[1-Ethyl-1-(4-methylsulfanyl-phenyl)-propyl]-1H-indol-7-yl}-methanesulfonamide] were below 500 nM and below 500 nM.
Taken in the same sequence, the figures for `CC(C)(c1ccc(-c2ccccc2)cc1)c1c[nH]c2c(NS(C)(=O)=O)cccc12` [Example 39, N-[3-(1-Biphenyl-4-yl-1-methyl-ethyl)-1H-indol-7-yl]-methanesulfonamide] were below 1000 nM and below 500 nM.
Consider `CCc1cccc2c(C(C)(c3ccccc3)c3ccc(OC)cc3)c[nH]c12` (centres unmarked) [Example 25], for which the Ki on glucocorticoid receptor and on human MR was below 500 nM in each case.
Take `CCC(CC)(c1ccccc1C)c1c[nH]c2c(NS(C)(=O)=O)cccc12` [Example 67, N-[3-(1-Ethyl-1-o-tolyl-propyl)-1H-indol-7-yl]-methanesulfonamide]: the Ki at glucocorticoid receptor and on human MR was below 500 nM each time.
